From patent EP0551518A1, “QUINOLINECARBOXYLIC ACID DERIVATIVE” (NIPPON SHINYAKU COMPANY, LIMITED, priority 1990, dated 1992)
≈ marks a conversion by molar mass, not a printed value. Read-outs that look alike come from different tables or passages of the source.

Assays:
Experiment in all cases: Determination of minimal inhibitory concentration of growth (MIC)-1, agar plate dilution method
Assay type in all cases: cell-based
[1] = tested on: Bacillus subtilis ATCC 6633
Description: (§1) Method: MIC was determined by the agar plate dilution method in accordance with the standard protocol of Japan Society of Chemotherapy (cf. Chemotherapy 29 (1), 76-79, 1981). Each bacterial culture obtained by 18-hour incubation in a sensitivity assay bouillon medium at 37°C was diluted to 10⁶ CFU/ml with the same medium. Using a microplanter, a sensitivity assay agar medium containing the test drug was inoculated with the diluted culture and incubated at 37°C for 18 hours. The MIC value was then determined. As reference drugs, 6-fluoro-1-methyl-4-oxo-7-(1-piperazinyl)-4H-[1,3]thiazeto[3,2-a]quinoline-3-carboxylic acid (referred to as control), ciprofloxacin (CPFX) and ofloxacin (OFLX) were used.

[2] = tested on: Enterococcus faecalis ATCC 29212
Description: as §1

Escherichia coli KC-14 = conditions: Escherichia coli, KC14, 18 h, 10⁶ CFU/ml, 37°C, read-out: MIC
Description: as §1

[3] = tested on: Micrococcus luteus ATCC 9341
Description: as §1

Proteus vulgaris HX-19 = conditions: Proteus vulgaris, HX19, 18 h
Description: as §1

[4] = tested on: Pseudomonas aeruginosa IFO 3445; conditions: Pseudomonas aeruginosa, IFO3445, 18 h
Description: as §1

[5] = tested on: Staphylococcus aureus 209-P JC-1; conditions: Staphylococcus aureus, 209P, 18 h
Description: as §1

[6] = tested on: Staphylococcus aureus OWPH 1984 (MRSA); conditions: Staphylococcus aureus, MRSA, 18 h
Description: as §1

[7] = tested on: Staphylococcus aureus OWPH 2125 (MRSA, PCA^r ); conditions: Staphylococcus aureus, MRSA, 18 h
Description: as §1

[8] = tested on: Staphylococcus aureus Smith
Description: as §1

[9] = tested on: Staphylococcus epider-midis IFO 12993; conditions: Staphylococcus, IFO12993, 18 h
Description: as §1

[10] = ATCC6633, Bacillus subtilis ATCC 6633, agar plate dilution, 10⁶ CFU/ml, 37°C, 18 hours, read-out: MIC
[11] = ATCC29212, Enterococcus faecalis ATCC 29212, agar plate dilution, 10⁶ CFU/ml, 37°C, 18 hours, read-out: MIC
[12] = ATCC9341, Micrococcus luteus ATCC 9341, agar plate dilution, 10⁶ CFU/ml, 37°C, 18 hours, read-out: MIC
[13] = Proteus vulgaris HX-19, agar plate dilution, 10⁶ CFU/ml, 37°C, 18 hours, read-out: MIC
[14] = Pseudomonas aeruginosa IFO 3445, agar plate dilution, 10⁶ CFU/ml, 37°C, 18 hours, read-out: MIC
[15] = Staphylococcus aureus 209-P JC-1, agar plate dilution, 10⁶ CFU/ml, 37°C, 18 hours, read-out: MIC
[16] = Staphylococcus aureus OWPH 1984 (MRSA), agar plate dilution, 10⁶ CFU/ml, 37°C, 18 hours, read-out: MIC
[17] = Staphylococcus aureus OWPH 2125 (MRSA, PCA^r), agar plate dilution, 10⁶ CFU/ml, 37°C, 18 hours, read-out: MIC
[18] = Staphylococcus aureus Smith, agar plate dilution, 10⁶ CFU/ml, 37°C, 18 hours, read-out: MIC
[19] = Staphylococcus epider-midis IFO 12993, agar plate dilution, 10⁶ CFU/ml, 37°C, 18 hours, read-out: MIC

Row | Compound | MIC [1, 10] [µg/mL] | MIC [2, 11] [µg/mL] | MIC (Escherichia coli KC-14) [µg/mL] | MIC [3, 12] [µg/mL] | MIC (Proteus vulgaris HX-19; [13]) [µg/mL] | MIC [4, 14] [µg/mL] | MIC [5, 15] [µg/mL] | MIC [6, 16] [µg/mL] | MIC [7, 17] [µg/mL] | MIC [8, 18] [µg/mL] | MIC [9, 19] [µg/mL] | further results
1 | CC1COc2c(N3CCN(C)CC3)c(F)cc3c(=O)c(C(=O)O)cn1c23 (racemic) [OFLX, ofloxacin, reference compound] | 0.1 (≈ 0.277 µM) | 1.56 (≈ 4.32 µM) | 0.05 (≈ 0.138 µM) | 3.13 (≈ 8.66 µM) | 0.05 (≈ 0.138 µM) | 0.78 (≈ 2.16 µM) | 0.39 (≈ 1.08 µM) | 0.39 (≈ 1.08 µM) | 6.25 (≈ 17.3 µM) | 0.2 (≈ 0.553 µM) | 0.39 (≈ 1.08 µM) | –
2 | O=C(O)c1cn(C2CC2)c2cc(N3CCNCC3)c(F)cc2c1=O [CPFX, ciprofloxacin, reference compound] | – | – | 0.025 (≈ 0.0754 µM) | – | – | – | – | – | – | – | – | MIC ([1]; Bacillus subtilis, ATCC6633, 18 h): 0.05 µg/mL (≈ 0.151 µM); MIC ([2]; Enterococcus faecalis, ATCC29212, 18 h): 1.56 µg/mL (≈ 4.71 µM); MIC ([3]; Micrococcus luteus, ATCC9341, 18 h): 0.39 µg/mL (≈ 1.18 µM); MIC (Proteus vulgaris HX-19): 0.025 µg/mL (≈ 0.0754 µM); MIC [4]: 0.2 µg/mL (≈ 0.604 µM); MIC [5]: 0.2 µg/mL (≈ 0.604 µM); MIC [6]: 0.39 µg/mL (≈ 1.18 µM); MIC [7]: 12.5 µg/mL (≈ 37.7 µM); MIC ([8]; Staphylococcus aureus, 18 h): 0.2 µg/mL (≈ 0.604 µM); MIC [9]: 0.39 µg/mL (≈ 1.18 µM)
3 | CC1Sc2c(C(=O)O)c(=O)c3cc(F)c(-c4ccccc4)cc3n21 (stereo not drawn) [Example 5, 6-Fluoro-1-methyl-4-oxo-7-phenyl-4H-[1,3]thiazeto[3,2-a]quinoline-3-carboxylic acid] | ≤ 0.006 | 0.1 (≈ 0.293 µM) | 0.1 (≈ 0.293 µM) | 0.39 (≈ 1.14 µM) | 0.05 (≈ 0.146 µM) | 0.2 (≈ 0.586 µM) | 0.025 (≈ 0.0732 µM) | 0.012 (≈ 0.0352 µM) | 0.05 (≈ 0.146 µM) | ≤ 0.006 | 0.025 (≈ 0.0732 µM) | –
4 | O=C(O)c1c2n(c3cc(-c4ccccc4)c(F)cc3c1=O)CS2 [Example 18, 6-Fluoro-4-oxo-7-phenyl-4H-[1,3]thiazeto[3,2-a]quinoline-3-carboxylic acid] | ≤ 0.006 | 0.39 (≈ 1.19 µM) | 0.2 (≈ 0.611 µM) | 6.25 (≈ 19.1 µM) | 0.025 (≈ 0.0764 µM) | 0.39 (≈ 1.19 µM) | 0.012 (≈ 0.0367 µM) | 0.025 (≈ 0.0764 µM) | 0.2 (≈ 0.611 µM) | ≤ 0.006 | 0.1 (≈ 0.305 µM) | –
5 | O=C(O)c1c2n(c3c(F)c(-c4ccccc4)c(F)cc3c1=O)CS2 [Example 19, 6,8-Difluoro-4-oxo-7-phenyl-4H-[1,3]thiazeto[3,2-a]quinoline-3-carboxylic acid] | ≤ 0.006 | 0.2 (≈ 0.579 µM) | 0.1 (≈ 0.29 µM) | 6.25 (≈ 18.1 µM) | 0.012 (≈ 0.0347 µM) | 0.78 (≈ 2.26 µM) | 0.012 (≈ 0.0347 µM) | 0.025 (≈ 0.0724 µM) | 0.2 (≈ 0.579 µM) | ≤ 0.006 | 0.025 (≈ 0.0724 µM) | –
6 | COc1c(-c2ccccc2)c(F)cc2c(=O)c(C(=O)O)c3n(c12)CS3 [Example 21, 6-Fluoro-8-methoxy-4-oxo-7-phenyl-4H-[1,3]thiazeto[3,2-a]quinoline-3-carboxylic acid] | 0.025 (≈ 0.07 µM) | 0.39 (≈ 1.09 µM) | 0.78 (≈ 2.18 µM) | 3.13 (≈ 8.76 µM) | 0.39 (≈ 1.09 µM) | 6.25 (≈ 17.5 µM) | 0.05 (≈ 0.14 µM) | 0.025 (≈ 0.07 µM) | 0.39 (≈ 1.09 µM) | 0.05 (≈ 0.14 µM) | 0.05 (≈ 0.14 µM) | –
7 | CC1Sc2c(C(=O)O)c(=O)c3cc(F)c(-c4ccccc4)c(F)c3n21 (stereo not drawn) [Example 24, 6,8-Difluoro-1-methyl-4-oxo-7-phenyl-4H-[1,3]thiazeto[3,2-a]quinoline-3-carboxylic acid] | ≤ 0.006 | 0.05 (≈ 0.139 µM) | 0.2 (≈ 0.557 µM) | 0.39 (≈ 1.09 µM) | 0.1 (≈ 0.278 µM) | 0.39 (≈ 1.09 µM) | 0.012 (≈ 0.0334 µM) | 0.012 (≈ 0.0334 µM) | 0.05 (≈ 0.139 µM) | ≤ 0.006 | 0.012 (≈ 0.0334 µM) | –
8 | COc1c(-c2ccc(N)cc2)c(F)cc2c(=O)c(C(=O)O)c3n(c12)C(C)S3 (stereo not drawn) [Example 27, 7-(4-Aminophenyl)-6-fluoro-8-methoxy-1-methyl-4-oxo-4H[1,3]thiazeto[3,2-a]quinoline-3-carboxylic acid] | ≤ 0.006 | 0.05 (≈ 0.129 µM) | 0.1 (≈ 0.259 µM) | 0.1 (≈ 0.259 µM) | 0.012 (≈ 0.0311 µM) | 0.78 (≈ 2.02 µM) | 0.012 (≈ 0.0311 µM) | ≤ 0.006 | ≤ 0.006 | ≤ 0.006 | ≤ 0.006 | –
9 | Nc1ccc(-c2cc3c(cc2F)c(=O)c(C(=O)O)c2n3CS2)cc1 [Example 31, 7-(4-Aminophenyl)-6-fluoro-4-oxo-4H-[1,3]thiazeto[3,2-a]quinoline-3-carboxylic acid] | ≤ 0.006 | 0.1 (≈ 0.292 µM) | 0.025 (≈ 0.073 µM) | 1.56 (≈ 4.56 µM) | ≤ 0.006 | 0.2 (≈ 0.584 µM) | 0.012 (≈ 0.0351 µM) | 0.025 (≈ 0.073 µM) | 0.2 (≈ 0.584 µM) | ≤ 0.006 | ≤ 0.006 | –
10 | COc1ccc(-c2cc3c(cc2F)c(=O)c(C(=O)O)c2n3C(C)S2)cc1 (stereo not drawn) [Example 38, 6-Fluoro-7-(4-methoxyphenyl)-1-methyl-4-oxo-4H-[1,3]th-iazeto[3,2-a]quinoline-3-carboxylic acid] | 0.012 (≈ 0.0323 µM) | 0.2 (≈ 0.539 µM) | 0.39 (≈ 1.05 µM) | 0.39 (≈ 1.05 µM) | 0.78 (≈ 2.1 µM) | 1.56 (≈ 4.2 µM) | 0.1 (≈ 0.269 µM) | 0.025 (≈ 0.0673 µM) | 0.2 (≈ 0.539 µM) | 0.025 (≈ 0.0673 µM) | 0.1 (≈ 0.269 µM) | –
11 | CC1Sc2c(C(=O)O)c(=O)c3cc(F)c(-c4ccc(O)cc4)cc3n21 (stereo not drawn) [Example 44, 6-Fluoro-7-(4-hydroxyphenyl)-1-methyl-4-oxo-4H-[1,3]thiazeto[3,2-a]quinoline-3-carboxylic acid] | ≤ 0.006 | 0.1 (≈ 0.28 µM) | 0.1 (≈ 0.28 µM) | 0.1 (≈ 0.28 µM) | 0.025 (≈ 0.07 µM) | 0.2 (≈ 0.56 µM) | ≤ 0.006 | 0.012 (≈ 0.0336 µM) | 0.05 (≈ 0.14 µM) | ≤ 0.006 | ≤ 0.006 | –
12 | CNc1ccc(-c2cc3c(cc2F)c(=O)c(C(=O)O)c2n3CS2)cc1 [Example 46, 6-Fluoro-7-(4-methylaminophenyl)-4-oxo-4H-[1,3]thiazeto[3,2-a]quinoline-3-carboxylic acid] | ≤ 0.006 | 0.2 (≈ 0.561 µM) | 0.1 (≈ 0.281 µM) | 0.78 (≈ 2.19 µM) | 0.025 (≈ 0.0702 µM) | 0.78 (≈ 2.19 µM) | 0.025 (≈ 0.0702 µM) | 0.012 (≈ 0.0337 µM) | 0.1 (≈ 0.281 µM) | ≤ 0.006 | 0.05 (≈ 0.14 µM) | –
13 | CCNc1ccc(-c2cc3c(cc2F)c(=O)c(C(=O)O)c2n3C(C)S2)cc1 (stereo not drawn) [Example 47, 7-(4-Ethylaminophenyl)-6-fluoro-1-methyl-4-oxo-4H-[1,3]thiazeto[3,2-a]quinoline-3-carboxylic acid] | ≤ 0.006 | 0.1 (≈ 0.26 µM) | 0.2 (≈ 0.52 µM) | 0.39 (≈ 1.01 µM) | 0.05 (≈ 0.13 µM) | 1.56 (≈ 4.06 µM) | 0.025 (≈ 0.065 µM) | 0.025 (≈ 0.065 µM) | 0.05 (≈ 0.13 µM) | ≤ 0.006 | ≤ 0.006 | –
14 | CNc1ccc(-c2c(F)cc3c(=O)c(C(=O)O)c4n(c3c2OC)C(C)S4)cc1 (stereo not drawn) [Example 49, 6-Fluoro-8-methoxy-1-methyl-7-(4-methylaminophenyl)-4-oxo-4H-[1,3]thiazeto[3,2-a]quinoline-3-carboxylic acid] | ≤ 0.006 | 0.025 (≈ 0.0624 µM) | 0.39 (≈ 0.974 µM) | 0.2 (≈ 0.499 µM) | 0.39 (≈ 0.974 µM) | 3.13 (≈ 7.82 µM) | 0.025 (≈ 0.0624 µM) | 0.012 (≈ 0.03 µM) | 0.1 (≈ 0.25 µM) | ≤ 0.006 | 0.012 (≈ 0.03 µM) | –
15 | CC1Sc2c(C(=O)O)c(=O)c3cc(F)c(-c4ccc(N)cc4)cc3n21.Cl (stereo not drawn) [Example 55, 7-(4-Aminophenyl)-6-fluoro-1-methyl-4-oxo-4H-[1,3]thiazeto[3,2-a]quinoline-3-carboxylic acid hydrochloride] | ≤ 0.006 | 0.1 | 0.1 | 0.39 | 0.025 | 0.39 | 0.025 | 0.012 | 0.05 | 0.012 | 0.012 | –
